Each structure is given as a SMILES string.

Format in all cases: cell-based
Assay [1] relates to Mito-GFP-labeled neural precursor cells. The experiment in a line: Clearance of mitochondria by flunarizine in mito-GFP-labeled neural precursor cells (confocal microscopy). Conditions: for mitochondrial morphology in neural precursor cells: 3 days. The protocol:
Mito-GFP-labeled neural precursor cells were plated on a 6-well plate, and the surface coverage of the neural precursor cells on the 6-well plate was 80%. […] Then, the cells were detected with a confocal microscopy and the clearance efficiency of the mitochondrial was observed.
The mito-GFP-labeled neural precursor cells were plated on a 6-well plate, and the surface coverage of the neural precursor cells on the 6-well plate was 80%. […] Then, the results were detected with a confocal microscope and the efficiency of the mitochondrial clearance was observed.

Assay [2] shares this test system. The experiment in a line: Mitochondrial clearance after knockdown of classic mitophagy core genes in neural precursor cells. Conditions: 15 μM flunarizine, 3 days; shTRC, shATG5-a/b, shPINK1-a/b, shFUNDC1-a/b. The protocol: The corresponding classic mitophagy core genes (including shTRC, shATG5-a, shATG5-b, shPINK1-a, shPINK1-b, shFUNDC1-a, and shFUNDC1-b) in mito-GFP-labeled neural precursor cells were knocked down. Then, the cells were plated on a glass slide, the surface coverage of neural precursor cells on the glass slide was 80%. […] Thereafter, the cells were detected with a confocal microscope. The specific results are illustrated in FIG. 3B and FIG. 3C.

Assay [3] concerns neural precursor cells labeled with LAMP1-GFP and mito-DsRed. The assay can be described thus: Mitochondria entering lysosomes (LAMP1-GFP / mito-DsRed overlap). Conditions: 15 μM flunarizine, 12 hours. The protocol: The neural precursor cells labeled with LAMP1-GFP and mito-DsRed were plated on a glass slide, and the surface coverage of the neural precursor cells on the glass slide was 80%. […] Then, the results were detected with a confocal microscope.

The test system of assay [4] is Mito-GFP-labeled mouse embryonic fibroblasts (MEF cells). The experiment in a line: Mitochondrial clearance in MEF cells with mitophagy core genes knocked off. Conditions: 15 μM flunarizine, 3 days; WT, ATG5, PARK2, FUNDC1. As for the experimental part: Mito-GFP-labeled mouse embryonic fibroblasts (MEF cells) were plated on a glass slide. The corresponding classic mitophagy core genes (including WT, ATG5, PARK2, and FUNDC1) in the MEF cells were knocked off. The surface coverage of the cells on the glass slide was 80%. […] Then, the cells were detected with a confocal microscope.

Assay [5] has as its system neural precursor cells labeled with LC3-GFP and mito-DsRed. The experiment in a line: Co-localization of mitochondria with LC3-GFP labeled autophagosomes (confocal microscope). Conditions: 15 μM flunarizine, 12 hours.
Description: The neural precursor cells labeled with LC3-GFP and mito-DsRed were plated on the glass slides, and the surface coverage of the neural precursor cells on the glass slides was 80%. […] Then, the results were detected with a confocal microscope.
The test system of assay [6] is Mito-DsRed-labeled neural precursor cells. The assay can be described thus: Mitochondrial efflux (mitochondria, lysosome and cell membrane overlap). Conditions: 15 μM flunarizine, 24 hours; Lysotraker DeepRed, FM1-43.
Description: Mito-DsRed-labeled neural precursor cells were plated on a glass slide, and the surface coverage of the neural precursor cells on the glass slide was 80%. […] The final concentration was 15 μM. The lysosomes were labeled with Lysotraker DeepRed, the cell membranes were labeled with FM1-43, and then the results were detected with a confocal microscope.

Take `Fc1ccc(C(c2ccc(F)cc2)N2CCN(C/C=C/c3ccccc3)CC2)cc1` [flunarizine]: the “removal of intracellular mitochondria” value in assay [1] (15 μM flunarizine, 3 days of treatment, 80% surface coverage) is on record as “substantially completely removed”; in assay [1] (contact time more than 3 days), “completely removed”. In assay [1] (after 3 days of treatment, tested 5, 10, 15, 20, 25 μM), the “concentration that can effectively remove the mitochondria in the cells” value is reported as “above 10 μM”. Also, the “mitochondrial morphology in neural precursor cells” value in assay [1] (final concentration 15 μM), in assay [1] (final concentration 20 μM) and in assay [1] (final concentration 25 μM) was “basically not observed” throughout. The “mitochondrial clearance after knockdown of mitophagy core genes” value in assay [2] is on record as “knockdown of related genes could not inhibit mitochondrial clearance”. Besides, the “overlap of LAMP1 and mito (mitochondria entering lysosomes)” value in assay [3] is given as “wrapped by lysosomes”. In addition, the “mitochondrial clearance in MEF cells with mitophagy genes knocked off” value in assay [4] is “knockdown of mitophagy-related genes cannot inhibit mitochondrial clearance”. Also, the “co-localization of mitochondria with LC3-GFP labeled autophagosomes” value in assay [5] is on record as “not co-localized with LC3-GFP labeled autophagosomes”. The “mitochondrial efflux vesicles on the cell surface” value in assay [6] is reported as “efflux vesicles wrapped around mitochondria were formed”.
